Experimental findings from US20230346717A1, “IDENTIFICATION AND USE OF COMPOUNDS IN THE TREATMENT OR PREVENTION OF SEVERE ACUTE RESPIRATORY SYNDROME CORONAVIRUS 2” (priority 2020, published 2023) are described below.

Structures can show the parent of a compound that is named as a salt. Where two headings read alike, the source gives them in different places.

Assay type in all cases: cell-based, human
In one data set the test system is lysosome pathway genes. Put plainly: Enrichment analysis of genes downregulated by amantadine (top 500 differentially expressed probes). Particulars: ARPE-19/HPV-16, 10 μM, 24 h. The source says: (§1) A drug screen was used to test agents having the potential to treat or prevent SARS-CoV-2 infection. The retinal pigment epithelia cell line, ARPE-19/HPV-16, was chosen to establish a database of drug profiles because of its non-cancerous, human origin, with a normal karyotype. ARPE-19/HPV-16 can be easily grown as monolayer in 96-well plates and expresses a variety of well known, neuronal, cell surface receptors that include the dopamine receptor D2, the serotonin receptors 1A, 2A, and 2C, the muscarinic receptor M3, and the histamine receptor H1.
(§2) Cell lines were propagated according to supplier's specifications (ATCC Manassas, VA). Compounds were obtained from Sigma (St. Louis, MO) or Vanda Pharmaceuticals (Washington, DC). Cells were aliquoted on 96-well plates (˜2×10^5 cells/well) and incubated for 24 hours prior to providing fresh media with a drug, or the drug vehicle (water, dimethyl sulfoxide, ethanol, methanol, or phosphate-buffered saline solution). Drugs were diluted 1000-fold in buffered Advanced D-MEM/F-12 culture medium (Invitrogen, Carlsbad, CA) containing nonessential amino acids and 110 mg/L sodium pyruvate. […]
(§3) Cells were harvested 24 hours after treatment and RNA was extracted using the RNeasy 96 protocol (Qiagen, Valencia, CA). […] A total of 708 microarrays were analyzed including 74 for 18 antipsychotics, 499 for 448 other compounds, and 135 for vehicle controls. […]

In the next data set the test system is AGA. The conditions noted are these: ARPE-19/HPV-16, 10 μM, 24 h.
Data set [1] deals with steroid sulfatase (microsomal). Put plainly: Gene expression assay, lysosome gene steroid sulfatase (microsomal). The conditions noted are these: probe 203767_s_at; ARPE-19/HPV-16, 10 μM, 24 h.
From the text: as §1, §2, §3

A further data set relates to CD164. Put plainly: Gene expression assay, lysosome gene CD164. The conditions noted are these: probe 208654_s_at; ARPE-19/HPV-16, 10 μM, 24 h.
From the text: as §1, §2, §3

A further data set deals with GALC. The experiment in a line: Gene expression assay, lysosome gene GALC. The conditions noted are these: probe 204417_at; ARPE-19/HPV-16, 10 μM, 24 h.
From the text: as §1, §2, §3

The next data set has as its system PCYOX1. The experiment in a line: Gene expression assay, lysosome gene PCYOX1. The conditions noted are these: probe 203803_at; ARPE-19/HPV-16, 10 μM, 24 h.
From the text: as §1, §2, §3

Consider `NC12CC3CC(CC(C3)C1)C2` [Amantadine Hydrochloride], for which, in the data set on lysosome pathway genes, the “expression reduction of the top 500 differentially expressed probes (383 genes)” value was “at least 50%”. Besides, in the data set on AGA (probe 204332_s_at), the “avg_tx (log2) AGA” value turned out to be 9.18 log2 and the “diff (log2) AGA” value is listed as −1.39 log2. Further, in the data set with AGA (probe 204333_s_at), the “avg_tx (log2) AGA” value was 6.57 log2 and the “diff (log2) AGA” value is given as −1.6 log2. In the data set with AGA (probe 216064_s_at), the “avg_tx (log2) AGA” value was found to be 8.12 log2 and the “diff (log2) AGA” value is recorded as −1.38 log2. Moreover, in data set [1], the “avg_tx (log2) steroid sulfatase (microsomal)” value was 5.55 log2 and the “diff (log2) steroid sulfatase (microsomal)” value is given as −1.47 log2. In addition, in the data set with CD164, the “avg_tx (log2) CD164” value amounted to 8.7 log2 and the “diff (log2) CD164” value is given as −1.34 log2. Further, in the data set on GALC, the “avg_tx (log2) GALC” value came to 6.58 log2 and the “diff (log2) GALC” value is listed as −2.06 log2. Moreover, in the data set on PCYOX1, the “avg_tx (log2) PCYOX1” value turned out to be 7.15 log2 and the “diff (log2) PCYOX1” value is recorded as −1.57 log2.
